{"source": "patent US20240124418A1", "about": "(BioTheryX, Inc., priority 2020, published 2024)", "test_system": "TNF-α", "assay": "Cell-based TNF-α inhibition assay (LPS-induced PBMCs, Meso Scale)", "details": "PBMC, PBMCs pretreated 1 h, LPS 100 ng/mL 18-24 h, percentage of stimulated DMSO control; for inhibition at 0.1 µM: compound concentration 0.1 μM; for inhibition at 1 µM: compound concentration 1 μM", "protocol": "Example B1. Cell-Based TNF-α Inhibition Assay\nFrozen primary blood mononuclear cells (PBMCs) were quick thawed, washed once with RPMI 1640 media supplemented with 10% fetal bovine serum, 1% penicillin, and 1% streptomycin, and plated in a 96 well plate at 200,000 cells per well. The cells were pretreated with DMSO only as a control or a compound for 1 h, and then induced with LPS (lipopolysaccharide) (100 ng/mL) for 18-24 h. The supernatant was analyzed for TNF-α using the Meso Scale assay. Compound activity was determined as a percentage of the stimulated DMSO control. The results are summarized in Table 1, where A represents a percent inhibition value ≥60%; B represents a percent inhibition value <60% and ≥40%; C represents a percent inhibition value <40% and ≥20%; and D represents a single percent inhibition value <20%.", "data": [{"smiles": "CCOc1cc([C@@H](CS(C)(=O)=O)N2C(=O)c3cccc(NC(=O)CCCCCCCCCCOc4cc(-c5scnc5C)ccc4CNC(=O)[C@@H]4C[C@@H](O)CN4C(=O)[C@@H](NC(C)=O)C(C)(C)C)c3C2=O)ccc1OC", "note": "[Compound A75, (2S,4R)-1-[(2S)-2-Acetamido-3,3-dimethylbutanoyl]-N-[(2-{[10-({2-[(1S)-1-(3-ethoxy-4-methoxyphenyl)-2-methanesulfonylethyl]-1,3-dioxo-2,3-dihydro-1H-isoindol-4-yl}-carbamoyl)decyl]oxy}-4-(4-methyl-1,3-thiazol-5-yl)phenyl)methyl]-4-hydroxypyrrolidine-2-carboxamide]", "values": [{"measurement": "inhibition at 0.1 µM", "result": "≥ 60", "unit": "%"}, {"measurement": "inhibition at 1 µM", "result": "≥ 60", "unit": "%"}]}, {"smiles": "CCOc1cc([C@@H](CS(C)(=O)=O)N2C(=O)c3cccc(NC(=O)CCCCCCOc4cc(-c5scnc5C)ccc4CNC(=O)[C@@H]4C[C@@H](O)CN4C(=O)[C@@H](NC(C)=O)C(C)(C)C)c3C2=O)ccc1OC", "note": "[Compound A76, (2S,4R)-1-[(2S)-2-Acetamido-3,3-dimethylbutanoyl]-N-[(2-{[6-({2-[(1S)-1-(3-ethoxy-4-methoxyphenyl)-2-methanesulfonylethyl]-1,3-dioxo-2,3-dihydro-1H-isoindol-4-yl}-carbamoyl)hexyl]oxy}-4-(4-methyl-1,3-thiazol-5-yl)phenyl)methyl]-4-hydroxypyrrolidine-2-carboxamide]", "values": [{"measurement": "inhibition at 0.1 µM", "result": "40 to 60", "unit": "%"}, {"measurement": "inhibition at 1 µM", "result": "≥ 60", "unit": "%"}]}, {"smiles": "CCOc1cc([C@@H](CS(C)(=O)=O)N2C(=O)c3cccc(NC(=O)CCCCCCCN4CCN(CC(=O)Nc5ccc6c(C7CCC(=O)NC7=O)nn(C)c6c5)CC4)c3C2=O)ccc1OC", "note": "(stereo partly drawn) [Compound A77, 8-[4-({[3-(2,6-Dioxopiperidin-3-yl)-1-methyl-1H-indazol-6-yl]carbamoyl}-methyl)piperazin-1-yl]-N-{2-[(1S)-1-(3-ethoxy-4-methoxyphenyl)-2-methanesulfonylethyl]-1,3-dioxo-2,3-dihydro-1H-isoindol-4-yl}octanamide]", "values": [{"measurement": "inhibition at 0.1 µM", "result": "≥ 60", "unit": "%"}, {"measurement": "inhibition at 1 µM", "result": "≥ 60", "unit": "%"}]}, {"smiles": "CCOc1cc([C@@H](CS(C)(=O)=O)N2C(=O)c3cccc(NC(=O)CCCCCN4CCN(CC(=O)Nc5ccc6c(C7CCC(=O)NC7=O)nn(C)c6c5)CC4)c3C2=O)ccc1OC", "note": "(stereo partly drawn) [Compound A78, 6-[4-({[3-(2,6-Dioxopiperidin-3-yl)-1-methyl-1H-indazol-6-yl]carbamoyl}-methyl)piperazin-1-yl]-N-{2-[(1S)-1-(3-ethoxy-4-methoxyphenyl)-2-methanesulfonylethyl]-1,3-dioxo-2,3-dihydro-1H-isoindol-4-yl}hexanamide]", "values": [{"measurement": "inhibition at 0.1 µM", "result": "≥ 60", "unit": "%"}, {"measurement": "inhibition at 1 µM", "result": "≥ 60", "unit": "%"}]}, {"smiles": "CCOc1cc([C@@H](CS(C)(=O)=O)N2C(=O)c3cccc(NC(=O)CCCCCCCCCN4CCN(CC(=O)Nc5ccc6c(C7CCC(=O)NC7=O)nn(C)c6c5)CC4)c3C2=O)ccc1OC", "note": "(stereo partly drawn) [Compound A79, 10-[4-({[3-(2,6-Dioxopiperidin-3-yl)-1-methyl-1H-indazol-6-yl]carbamoyl}-methyl)piperazin-1-yl]-N-{2-[(1S)-1-(3-ethoxy-4-methoxyphenyl)-2-methanesulfonylethyl]-1,3-dioxo-2,3-dihydro-1H-isoindol-4-yl}decanamide]", "values": [{"measurement": "inhibition at 0.1 µM", "result": "≥ 60", "unit": "%"}, {"measurement": "inhibition at 1 µM", "result": "≥ 60", "unit": "%"}]}, {"smiles": "CCOc1cc([C@@H](CS(C)(=O)=O)N2C(=O)c3cccc(NC(=O)CCCCCN4CCN(CC(=O)Nc5ccc(C6CCC(=O)NC6=O)cc5)CC4)c3C2=O)ccc1OC", "note": "(stereo partly drawn) [Compound A83, 6-[4-({[4-(2,6-Dioxopiperidin-3-yl)phenyl]carbamoyl}methyl)piperazin-1-yl]-N-{2-[(1S)-1-(3-ethoxy-4-methoxyphenyl)-2-methanesulfonylethyl]-1,3-dioxo-2,3-dihydro-1H-isoindol-4-yl}hexanamide]", "values": [{"measurement": "inhibition at 0.1 µM", "result": "≥ 60", "unit": "%"}, {"measurement": "inhibition at 1 µM", "result": "≥ 60", "unit": "%"}]}]}
